43 molecules from patent publication US20230348426A1, “OXOPYRROLIDINE FPR2 AGONISTS” (Bristol-Myers Squibb Company, priority 2020, published 2023) can be followed below.

Molecules are shown by their SMILES.

In one test the target is human FPR2 (Homo sapiens (Human), UniProt P25090). Kind of test: FPR2 cyclic adenosine monophosphate (cAMP) assay. The test is classed as cell-based. The note with it: CHO cells overexpressing human FPR2; forskolin 5 µM; inhibition of cAMP production; read-out: hFPR2 cAMP2 EC50. An outline of the steps:
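CHO cells overexpressing human FPR2 (2,000/well) incubated 30 min at room temperature with compound (0.020 nM–100 µM, 1% DMSO), 5 µM forskolin and 200 µM IBMX.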

Another test has as its target human FPR1 (Homo sapiens (Human), UniProt P21462). The test is described as follows: FPR1 cyclic adenosine monophosphate (cAMP) assay. The following applies: CHO cells overexpressing human FPR1; forskolin 10 µM; inhibition of cAMP production; read-out: hFPR1 cAMP EC50. The test is classed as cell-based. An outline of the steps:
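CHO cells overexpressing human FPR1 (4,000 cells/well) stimulated with 10 µM forskolin plus 200 µM IBMX in the presence of compound (0.020 nM–100 µM, 1% DMSO), 30 min at room temperature. Intracellular cAMP measured by HTRF. Inhibition of cAMP production fitted to a 4-parameter logistic equation.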
For orientation: cAMP levels reflect the balance of adenylyl cyclase and phosphodiesterase activity.

The term EC50 denotes the midpoint of the concentration-response curve.

human FPR1, sequence (P21462 whole entry): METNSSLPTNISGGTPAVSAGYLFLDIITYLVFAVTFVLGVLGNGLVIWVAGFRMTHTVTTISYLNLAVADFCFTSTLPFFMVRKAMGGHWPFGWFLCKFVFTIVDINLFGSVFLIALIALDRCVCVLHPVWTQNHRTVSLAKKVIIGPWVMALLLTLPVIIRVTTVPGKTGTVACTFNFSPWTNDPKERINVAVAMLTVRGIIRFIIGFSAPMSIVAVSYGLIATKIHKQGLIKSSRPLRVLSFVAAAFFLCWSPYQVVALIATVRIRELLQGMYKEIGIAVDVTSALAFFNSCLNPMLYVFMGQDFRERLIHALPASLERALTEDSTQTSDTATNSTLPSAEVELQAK
human FPR2, sequence (P25090 whole entry): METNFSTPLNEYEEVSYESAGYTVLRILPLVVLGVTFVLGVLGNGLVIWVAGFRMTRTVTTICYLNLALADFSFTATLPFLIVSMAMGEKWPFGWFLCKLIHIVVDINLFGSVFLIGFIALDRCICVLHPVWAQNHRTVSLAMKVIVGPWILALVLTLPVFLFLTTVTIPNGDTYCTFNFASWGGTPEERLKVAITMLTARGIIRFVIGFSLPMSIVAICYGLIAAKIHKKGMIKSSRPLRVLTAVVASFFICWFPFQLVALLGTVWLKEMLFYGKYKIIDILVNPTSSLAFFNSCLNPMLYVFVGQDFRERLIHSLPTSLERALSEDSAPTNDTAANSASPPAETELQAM

Regarding `COc1cc(F)c([C@@H]2CN(c3nccc(N4C[C@@H](C)N(C)[C@@H](C)C4)c3C(F)(F)F)C(=O)[C@H]2NC(=O)c2ccc(Cl)cc2)c(F)c1` [Example 181], the EC50 at human FPR2 stood at 4.8 nM; at human FPR1 it was 990 nM.
As for `COc1ccc([C@@H]2CN(c3c(C)ccn(CC(F)F)c3=O)C(=O)[C@H]2NC(=O)c2ccc(OC(F)(F)F)cc2)c(F)c1` [Example 182], the EC50 on human FPR2 was determined as 4.8 nM; at human FPR1, 1.8 nM.
In the case of `CCn1ccc(C)c(N2C[C@@H](c3ccc(OC)cc3F)[C@H](NC(=O)c3ccc(OC(F)(F)F)cc3)C2=O)c1=O` [Example 183], the results for the EC50 at human FPR2 and at human FPR1 were 4.8 nM and 0.6 nM, respectively.
Turning to `COc1cc(F)c([C@@H]2CN(c3cccc(OC(F)F)c3)C(=O)[C@H]2NC(=O)c2ccc(OC(F)(F)F)cc2)c(F)c1` [Example 184], the EC50 on human FPR2 turned out to be 4.8 nM; at human FPR1, 9.8 nM.
With `COCCn1ccc(C)c(N2C[C@@H](c3c(F)cc(OC)cc3F)[C@H](NC(=O)c3ccc(OC(F)(F)F)cc3)C2=O)c1=O` [Example 185], the EC50 at human FPR2 was 4.8 nM; on human FPR1, 0.7 nM.
In the case of `COc1cc(F)c([C@@H]2CN(c3cccn(CC(OC)C(F)(F)F)c3=O)C(=O)[C@H]2NC(=O)c2ccc(OC(F)F)cc2)c(F)c1` (some centres unmarked) [Example 186], the results for the EC50 at human FPR2 and at human FPR1 were 4.9 nM and 3 nM, respectively.
For `COc1cc(F)c([C@@H]2CN(c3cccn(CC(C)(CO)CO)c3=O)C(=O)[C@H]2NC(=O)c2ccc(OC(F)(F)F)cc2)c(F)c1` [Example 187], the EC50 at human FPR2 is 4.9 nM; at human FPR1, 38 nM.
Consider `COc1cc(F)c([C@@H]2CN(c3cccn(C(F)F)c3=O)C(=O)[C@H]2NC(=O)c2ccc(OC(F)(F)F)cc2)c(F)c1` [Example 188], for which the half-maximal effective concentration (EC50) on human FPR2 turned out to be 4.9 nM; at human FPR1, 38 nM.
As to `COc1cc(F)c([C@@H]2CN(c3cc(Cl)cn(C)c3=O)C(=O)[C@H]2NC(=O)c2ccc(Cl)cc2)c(F)c1` [Example 189], the half-maximal effective concentration (EC50) at human FPR2 came out at 5 nM; at human FPR1, 3400 nM.
Consider `COc1cc(F)c([C@@H]2CN(c3cccn(CC(F)(F)F)c3=O)C(=O)[C@H]2NC(=O)c2ccc(OC(F)F)cc2)c(F)c1` [Example 190], for which the figures for the EC50 at human FPR2 and on human FPR1 were 5 nM and 130 nM, respectively.
Taken in the same sequence, the figures for `COc1cc(F)c([C@@H]2CN(c3cccn(CC(F)(F)F)c3=O)C(=O)[C@H]2NC(=O)c2ccc(OC(F)(F)F)cc2)c(F)c1` [Example 191] were 5 nM and 90 nM.
Consider `COc1ccc([C@@H]2CN(c3c(C)ccn(CC4CC4)c3=O)C(=O)[C@H]2NC(=O)c2ccc(OC(F)F)cc2)c(F)c1` [Example 192], for which the EC50 is 5.1 nM at human FPR2 and 0.8 nM on human FPR1.
Take `COc1cc(F)c([C@@H]2CN(c3cccn(C)c3=O)C(=O)[C@H]2NC(=O)c2ccc(Cl)cc2)c(F)c1` [Example 193]: the EC50 was found to be 5.1 nM on human FPR2 and 570 nM on human FPR1.
For `COCC(CN)n1cccc(N2C[C@@H](c3c(F)cc(OC)cc3F)[C@H](NC(=O)c3ccc(OC(F)(F)F)cc3)C2=O)c1=O` (some centres unmarked) [Example 194], the EC50 at human FPR2 came out at 5.1 nM; on human FPR1, 150 nM.
Turning to `COc1cc(F)c([C@@H]2CN(c3c(C)ccn(CC4CC4)c3=O)C(=O)[C@H]2NC(=O)c2ccc(OC(F)F)cc2)c(F)c1` [Example 195], the EC50 worked out at 5.2 nM at human FPR2 and 1.3 nM on human FPR1.
Taken in the same sequence, the figures for `COc1cc(F)c([C@@H]2CN(c3c(Cl)ccn(C)c3=O)C(=O)[C@H]2NC(=O)c2ccc(Cl)cc2)c(F)c1` [Example 196] were 5.2 nM and 160 nM.
The matching figures for `CCn1ccc(C)c(N2C[C@@H](c3c(F)cc(OC)cc3F)[C@H](NC(=O)c3ccc(OC(F)F)cc3)C2=O)c1=O` [Example 197]: 5.2 nM and 1.7 nM.
`COc1cc(F)c([C@@H]2CN(c3nc(N4CCC(O)C4=O)ccc3F)C(=O)[C@H]2NC(=O)c2ccc(OC(F)F)cc2)c(F)c1` (some centres unmarked) [Example 199]: the figures for the EC50 at human FPR2 and at human FPR1 were 5.2 nM and 130 nM, respectively.
On to `COCCn1cccc(N2C(=O)[C@@H](NC(=O)c3ccc(OC(F)(F)F)cc3)[C@H](c3c(F)cc(OC)cc3F)[C@H]2C)c1=O` [Example 200], for which the figures for the EC50 at human FPR2 and at human FPR1 were 5.2 nM and 290 nM, respectively.
The matching figures for `COc1cc(F)c([C@@H]2CN(c3cccn(C4CCOC4)c3=O)C(=O)[C@H]2NC(=O)c2ccc(OC(F)F)cc2)c(F)c1` (some centres unmarked) [Example 201]: 5.3 nM and 18 nM.
With `COc1cc(F)c([C@@H]2CN(c3cccnc3OCCN3CC4(COC4)C3)C(=O)[C@H]2NC(=O)c2ccc(OC(F)F)cc2)c(F)c1` [Example 202], the EC50 worked out at 5.3 nM at human FPR2 and 62 nM on human FPR1.
Taken in the same sequence, the figures for `COc1cc(F)c([C@@H]2CN(c3nc(C(F)(F)F)ccc3C)C(=O)[C@H]2NC(=O)c2ccc(OC(F)F)cc2)c(F)c1` [Example 204] were 5.3 nM and 520 nM.
For the molecule `CCn1cc(F)cc(N2C[C@@H](c3c(F)cc(OC)cc3F)[C@H](NC(=O)c3ccc(OC(F)F)cc3)C2=O)c1=O` [Example 205], the EC50 stood at 5.4 nM on human FPR2 and 220 nM on human FPR1.
On to `COc1cc(F)c([C@@H]2CN(c3nc(NC(C)=O)ccc3F)C(=O)[C@H]2NC(=O)c2ccc(OC(F)(F)F)cc2)c(F)c1` [Example 206], for which the EC50 on human FPR2 amounted to 5.4 nM; at human FPR1, 24 nM.
The matching figures for `COCCn1ccc(C)c(N2C[C@@H](c3ccc(OC)cc3F)[C@H](NC(=O)c3ccc(OC(F)F)cc3)C2=O)c1=O` [Example 208]: 5.4 nM and 1.4 nM.
For the molecule `COc1cc(F)c([C@@H]2CN(c3nc(N4CC5(COC5)C4)ccc3F)C(=O)[C@H]2NC(=O)c2ccc(OC(F)F)cc2)c(F)c1` [Example 209], the EC50 on human FPR2 amounted to 5.5 nM; on human FPR1 it was 130 nM.
In the case of `COc1cc(F)c([C@@H]2CN(c3cccn(CCN4CC5(COC5)C4)c3=O)C(=O)[C@H]2NC(=O)c2ccc(OC(F)(F)F)cc2)c(F)c1` [Example 210], the results for the EC50 on human FPR2 and at human FPR1 were 5.5 nM and 190 nM, respectively.
For the molecule `COc1cc(F)c([C@@H]2CN(c3cccc(N4C[C@H]5C[C@@H]4CO5)n3)C(=O)[C@H]2NC(=O)c2ccc(OC(F)F)cc2)c(F)c1` [Example 211], the EC50 on human FPR2 was 5.5 nM; at human FPR1, 25 nM.
The matching figures for `COc1cc(F)c([C@@H]2CN(c3nc(C(F)(F)F)ccc3N3CC[C@H](O)C3)C(=O)[C@H]2NC(=O)c2ccc(Cl)cc2)c(F)c1` [Example 212]: 5.6 nM and 100 nM.
Regarding `COc1cc(F)c([C@@H]2CN(c3cccc(N4C[C@@H](C)N(C)[C@@H](C)C4)n3)C(=O)[C@@H]2NC(=O)c2ccc(OC(F)F)cc2)c(F)c1` [Example 213], the EC50 on human FPR2 was 5.6 nM; on human FPR1, 1800 nM.
With `COc1cc(N2C[C@@H](C)N(C)[C@@H](C)C2)nc(N2C[C@@H](c3c(F)cc(OC)cc3F)[C@H](NC(=O)c3ccc(OC(F)F)cc3)C2=O)c1` [Example 214], the EC50 on human FPR2 is 5.6 nM; on human FPR1, 2400 nM.
For `CCn1cccc(N2C[C@@H](c3c(F)cc(OC)cc3F)[C@H](NC(=O)c3ccc(C)cc3)C2=O)c1=O` [Example 215], the concentration giving a half-maximal response (EC50) was 5.6 nM on human FPR2 and 41 nM on human FPR1.
Taken in the same sequence, the figures for `COc1cc(F)c([C@@H]2CN(c3nc(N4CC(C)OCC4=O)ccc3F)C(=O)[C@H]2NC(=O)c2ccc(OC(F)F)cc2)c(F)c1` (some centres unmarked) [Example 216] were 5.7 nM and 270 nM.
With `COCC(CO)n1cccc(N2C(=O)[C@@H](NC(=O)c3ccc(OC(F)F)cc3)[C@H](c3c(F)cc(OC)cc3F)[C@@H]2C)c1=O` (some centres unmarked) [Example 217], the values for the EC50 on human FPR2 and on human FPR1 were 5.7 nM and 42 nM, respectively.
The matching figures for `COc1cc(F)c([C@@H]2CN(c3cccn(CC(C)(CO)CO)c3=O)C(=O)[C@H]2NC(=O)c2ccc(OC(F)F)cc2)c(F)c1` [Example 218]: 5.7 nM and 140 nM.
`COc1cc(F)c([C@@H]2CN(c3cccn(CCO)c3=O)C(=O)[C@H]2NC(=O)c2ccc(OC(F)F)cc2)c(F)c1` [Example 219]: the figures for the EC50 on human FPR2 and at human FPR1 were 5.8 nM and 140 nM, respectively.
On to `COCCn1cccc(N2C(=O)[C@@H](NC(=O)c3ccc(Cl)cc3)[C@H](c3c(F)cc(OC)cc3F)[C@H]2C)c1=O` [Example 220], for which the concentration giving a half-maximal response (EC50) at human FPR2 was 5.8 nM; at human FPR1, 990 nM.
Turning to `COc1cc(F)c([C@@H]2CN(c3cccn(CCF)c3=O)C(=O)[C@H]2NC(=O)c2ccc(OC(F)(F)F)cc2)c(F)c1` [Example 221], the EC50 at human FPR2 stood at 6 nM; at human FPR1 it was 50 nM.
In the case of `COc1cc(F)c([C@@H]2CN(c3nc(N4CC5(COC5)C4)ccc3OC)C(=O)[C@H]2NC(=O)c2ccc(OC(F)F)cc2)c(F)c1` [Example 223], the EC50 at human FPR2 amounted to 6.1 nM; at human FPR1, 100 nM.
As for `COc1cc(F)c([C@@H]2CN(c3nccc(N4CCN(S(C)(=O)=O)CC4)c3C(F)(F)F)C(=O)[C@H]2NC(=O)c2ccc(Cl)cc2)c(F)c1` [Example 224], the EC50 on human FPR2 is 6.1 nM; on human FPR1, 1900 nM.
The matching figures for `COc1cc(F)c([C@@H]2CN(c3nc(N4C[C@@H](C)N(C)[C@@H](C)C4)ccc3OC)C(=O)[C@H]2NC(=O)c2ccc(OC(F)F)cc2)c(F)c1` [Example 225]: 6.2 nM and 630 nM.
Regarding `CCn1cccc(N2C[C@@H](c3ccc(OC)cc3F)[C@H](NC(=O)c3ccc(OC(F)F)cc3)C2=O)c1=O` [Example 226], the EC50 at human FPR2 amounted to 6.2 nM; at human FPR1, 23 nM.
On to `COc1cc(F)c([C@@H]2CN(c3ccc(CO)n(C)c3=O)C(=O)[C@H]2NC(=O)c2ccc(OC(F)(F)F)cc2)c(F)c1` [Example 227], for which the EC50 was found to be 6.2 nM at human FPR2 and 240 nM at human FPR1.
